Data as given in US6399641B1, “2H-tetrazole-amide compounds with therapeutic activity as metabotropic glutamate receptor agonists” (Hoffmann-la Roche Inc., priority 2000, dated 2002).
Each block holds one compound with its values, some of them ahead of it.

Key:
rat mGlu1a receptor = target: T1, rat mGlu1a receptor (Rattus norvegicus, UniProt P23385); assay: [Ca2+]i measurement (FLIPR) on mGlu1a transfected EBNA cells; assay type: cell-based; conditions: agonist activity, rat mGlu1a transiently transfected EBNA cells, Fluo-3 AM
T1 construct: expressed in transfected cells; host or cells: EBNA cells (transient transfection)
T1 sequence (P23385 19-1199): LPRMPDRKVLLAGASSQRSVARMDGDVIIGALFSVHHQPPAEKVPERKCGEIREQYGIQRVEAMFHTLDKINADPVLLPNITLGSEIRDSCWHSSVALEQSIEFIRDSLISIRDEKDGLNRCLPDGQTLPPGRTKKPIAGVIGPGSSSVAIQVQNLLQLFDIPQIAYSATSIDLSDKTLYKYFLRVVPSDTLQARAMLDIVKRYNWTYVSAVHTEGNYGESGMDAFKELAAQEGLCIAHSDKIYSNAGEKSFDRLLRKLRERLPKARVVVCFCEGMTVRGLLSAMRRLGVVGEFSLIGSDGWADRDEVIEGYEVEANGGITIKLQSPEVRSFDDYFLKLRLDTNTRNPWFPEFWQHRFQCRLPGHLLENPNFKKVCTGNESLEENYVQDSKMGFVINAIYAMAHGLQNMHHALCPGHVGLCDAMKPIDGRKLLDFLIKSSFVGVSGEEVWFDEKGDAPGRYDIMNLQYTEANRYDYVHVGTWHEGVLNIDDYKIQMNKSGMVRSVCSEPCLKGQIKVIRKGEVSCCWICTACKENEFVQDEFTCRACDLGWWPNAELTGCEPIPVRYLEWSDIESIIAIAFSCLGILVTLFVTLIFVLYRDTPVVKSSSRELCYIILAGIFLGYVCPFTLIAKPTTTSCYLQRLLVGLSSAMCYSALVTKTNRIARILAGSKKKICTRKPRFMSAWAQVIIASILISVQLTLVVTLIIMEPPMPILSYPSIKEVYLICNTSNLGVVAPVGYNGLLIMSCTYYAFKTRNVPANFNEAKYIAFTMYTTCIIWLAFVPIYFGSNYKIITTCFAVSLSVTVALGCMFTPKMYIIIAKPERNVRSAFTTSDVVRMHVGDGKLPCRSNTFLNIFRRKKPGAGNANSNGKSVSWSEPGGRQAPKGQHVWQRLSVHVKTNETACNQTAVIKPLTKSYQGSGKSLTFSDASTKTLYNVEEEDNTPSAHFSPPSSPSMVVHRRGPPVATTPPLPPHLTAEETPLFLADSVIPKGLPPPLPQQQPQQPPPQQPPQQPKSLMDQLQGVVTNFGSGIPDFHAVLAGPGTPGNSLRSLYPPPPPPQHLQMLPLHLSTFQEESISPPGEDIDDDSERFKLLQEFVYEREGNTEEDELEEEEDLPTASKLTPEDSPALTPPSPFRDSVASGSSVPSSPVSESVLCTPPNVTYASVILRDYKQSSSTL
Method: cDNA encoding for rat mGlu1a receptor obtained from Prof. S. Nakanishi (Kyoto, Japan) was transiently transfected into EBNA cells using a procedure described by Schlaeger & Christensen, 1998. [Ca^2+]i measurement were performed on mGlu1a transfected EBNA cells after incubation of the cells with Fluo-3 AM (0.5 μM final concentration) for 1 hour at 37° C. followed by 4 washes with assay buffer (DMEM supplemented with Hank's salt and 20 mM HEPES). [Ca^2+]i measurement were done using a fluorometric imaging plate reader (FLIPR, Molecular Devices Corporation, La Jolla, Calif., USA). When compounds were evaluated as antagonists they were tested against 10 μM glutamate as agonist.
The inhibition (antagonists) or activation (agonists) curves were fitted with a four parameter logistic equation giving EC50, IC50 and Hill coefficient using the iterative non linear curve fitting software Origin (Microcal Software Inc., Northampton, Mass., USA). E.-J. Schlaeger and K. Christensen Transient gene expression in mammalian cells grown in serum-free suspension culture. Cytotechnology, 30:71-83, 1999.

Compound: CC(C)n1nnc(NC(=O)C(c2ccccc2)c2ccccc2)n1 [Example 7, N-(2-Isopropyl-2H-tetrazol-5-yl)-2,2-diphenyl-acetamide]
- EC50 (rat mGlu1a receptor): 100 nM
- melting point: 175 to 177 °C

Compound: Cn1nnc(NC(=O)C(c2ccccc2)c2ccccc2)n1 [Example 1, N-(2-Methyl-2H-tetrazol-5-yl)-2,2-diphenyl-acetamide]
- EC50 (rat mGlu1a receptor): 220 nM
- melting point: 218 °C (dec.)

Compound: O=C(Nc1nnn(CC(F)(F)F)n1)C1c2ccccc2Oc2ccccc21 [Example 10, 9H-Xanthene-9-carboxylic acid [2-(2,2,2-trifluoro-ethyl)-2H-tetrazol-5-yl]-amide]
- EC50 (rat mGlu1a receptor): 170 nM
- melting point: 209 to 210 °C

Compound: CCn1nnc(NC(=O)C2c3ccccc3Oc3ccccc32)n1 [Example 4, 9H-Xanthene-9-carboxylic acid (2-ethyl-2H-tetrazol-5-yl)-amide]
- melting point: 228 °C (dec.)

Compound: COCn1nnc(NC(=O)C(c2ccccc2)c2ccccc2)n1 [Example 13, N-(2-Methoxymethyl-2H-tetrazol-5-yl)-2,2-diphenyl-acetamide]
- melting point: 127 to 128 °C

Compound: O=C(Nc1nnn(CC2CC2)n1)C(c1ccccc1)c1ccccc1 [Example 5, N-(2-Cyclopropylmethyl-2H-tetrazol-5-yl)-2,2-diphenyl-acetamide]
- melting point: 147 to 148 °C

Compound: Cn1nnc(NC(=O)C2c3ccccc3Oc3ccccc32)n1 [Example 2, 9-Xanthene-9-carboxylic acid (2-methyl-2H-tetrazol-5-yl)-amide]
- EC50 (rat mGlu1a receptor): 180 nM
- melting point: 247 °C (dec.)

Compound: CCCn1nnc(NC(=O)C(c2ccccc2)c2ccccc2)n1 [Example 11, 2,2-Diphenyl-N-(2-propyl-2H-tetrazol-5-yl)-acetamide]
- melting point: 124 to 125 °C

Compound: CC(C)n1nnc(NC(=O)C2c3ccccc3Oc3ccccc32)n1 [Example 8, 9H-Xanthene-9-carboxylic acid (2-isopropyl-2H-tetrazol-5-yl)-amide]
- EC50 (rat mGlu1a receptor): 45 nM

Compound: O=C(Nc1nnn(CC2CC2)n1)C1c2ccccc2Oc2ccccc21 [Example 6, 9H-Xanthene-9-carboxylic acid (2-cyclopropylmethyl-2H-tetrazol-5-yl)-amide]
- melting point: 222 to 224 °C

Compound: CCn1nnc(NC(=O)C(c2ccccc2)c2ccccc2)n1 [Example 3, N-(2-Ethyl-2H-tetrazol-5-yl)-2,2-diphenyl-acetamide]
- melting point: 169 to 170 °C

Compound: O=C(Nc1nnn(CC(F)(F)F)n1)C(c1ccccc1)c1ccccc1 [Example 9, 2,2-Diphenyl-N-[2-(2,2,2-trifluoro-ethyl)-2H-tetrazol-5-yl]-acetamide]
- EC50 (rat mGlu1a receptor): 2000 nM
- melting point: 146 to 148 °C

Compound: CCCn1nnc(NC(=O)C2c3ccccc3Oc3ccccc32)n1 [Example 12, 9H-Xanthene-9-carboxylic acid (2-propyl-2H-tetrazol-5-yl)-amide]
- melting point: 208 to 209 °C

Other lines, results leading:

- melting point: 230 to 231 °C
Compound: CC(C)(C)n1nnc(NC(=O)C2c3ccccc3Oc3ccccc32)n1 [Example 16, 9H-Xanthene-9-carboxylic acid (2-tert-butyl-2H-tetrazol-5-yl)-amide]

- EC50 (rat mGlu1a receptor): 470 nM
- melting point: 158 to 159 °C
Compound: CCn1nnc(NC(=O)C2c3ccccc3COc3ccccc32)n1 (racemic) [Example 24, (RS)-6,11 -Dihydro-dibenzo[b,e]oxepine-11-carboxylic acid (2-ethyl-2H-tetrazol-5-yl)-amide]

- EC50 (rat mGlu1a receptor): 1390 nM
Compound: 9H-Thioxanthene-9-carboxylic acid (2-ethyl-2H-tetrazol-5-yl)-amide [Example 25]

- melting point: 168 to 169 °C
Compound: COC(=O)Cn1nnc(NC(=O)C(c2ccccc2)c2ccccc2)n1 [Example 21, (5-Diphenylacetylamino-tetrazol-2-yl)-acetic acid methyl ester]

- melting point: 173 to 174 °C
Compound: N#CCn1nnc(NC(=O)C(c2ccccc2)c2ccccc2)n1 [Example 19, N-(2-Cyanomethyl-2H-tetrazol-5-yl)-2,2-diphenyl-acetamide]

- melting point: 259 to 260 °C (dec.)
Compound: CCn1nnc(NC(=O)C2c3ccccc3Oc3cccc(OC)c32)n1 (racemic) [Example 26, (RS)-1-Methoxy-9H-xanthene-9-carboxylic acid (2-ethyl-2H-tetrazol-5-yl)-amide]

- EC50 (rat mGlu1a receptor): 190 nM
- melting point: 208 to 210 °C (dec.)
Compound: CCn1nnc(NC(=O)C2c3ccccc3Oc3ccc(OC)cc32)n1 (racemic) [Example 27, (RS)-2-Methoxy-9H-xanthene-9-carboxylic acid (2-ethyl-2H-tetrazol-5-yl)-amide]

- melting point: 239 to 240 °C (dec.)
Compound: CCn1nnc(NC(=O)C2c3ccccc3Oc3c(OC)cccc32)n1 (racemic) [Example 28, (RS)-4-Methoxy-9H-xanthene-9-carboxylic acid (2-ethyl-2H-tetrazol-5-yl)-amide]

- melting point: 191 to 192 °C
Compound: CC(C)(C)n1nnc(NC(=O)C(c2ccccc2)c2ccccc2)n1 [Example 15, N-(2-tert-Butyl-2H-tetrazol-5-yl)-2,2-diphenyl-acetamide]

- melting point: 168 to 169 °C
Compound: O=C(Nc1nnn(C(F)F)n1)C1c2ccccc2Oc2ccccc21 [Example 18, 9H-Xanthene-9-carboxylic acid (2-difluoromethyl-2H-tetrazol-5-yl)-amide]

- melting point: 221 to 222 °C
Compound: COCn1nnc(NC(=O)C2c3ccccc3Oc3ccccc32)n1 [Example 14, 9H-Xanthene-9-carboxylic acid (2-methoxymethyl-2H-tetrazol-5-yl)-amide]

- melting point: 143 to 145 °C
Compound: O=C(Nc1nnn(C(F)F)n1)C(c1ccccc1)c1ccccc1 [Example 17, N-(2-Difluoromethyl-2H-tetrazol-5-yl)-2,2-diphenyl-acetamide]

- melting point: 243 to 244 °C
Compound: COC(=O)Cn1nnc(NC(=O)C2c3ccccc3Oc3ccccc32)n1 [Example 22, {5-[(9H-Xanthene-9-carbonyl)-amino]-tetrazol-2-yl}-acetic acid methyl ester]

- melting point: 206 to 207 °C
Compound: CCn1nnc(NC(=O)C2c3ccccc3Cc3ccccc32)n1 [Example 23, 9,10-Dihydro-anthracene-9-carboxylic acid (2-ethyl-2H-tetrazol-5-yl)-amide]

- melting point: 204 to 205 °C
Compound: N#CCn1nnc(NC(=O)C2c3ccccc3Oc3ccccc32)n1 [Example 20, 9H-Xanthene-9-carboxylic acid (2-cyanomethyl-2H-tetrazol-5-yl)-amide]
